Common to all, as to type: biochemical
Holding throughout (conditions): cell lysate, 30 min incubation

The target in assay [1] is T1, GBA2 (Homo sapiens, UniProt Q9HCG7).
T1 construct: expressed in transfected cells; host or cells: HEK293T (GBA/GBA2 KO background for the fluorogenic assay; endogenous-GBA background with GBA2 and GBA3 overexpressed for ABPP and intact-cell assays)
T1 sequence (Q9HCG7 1-927): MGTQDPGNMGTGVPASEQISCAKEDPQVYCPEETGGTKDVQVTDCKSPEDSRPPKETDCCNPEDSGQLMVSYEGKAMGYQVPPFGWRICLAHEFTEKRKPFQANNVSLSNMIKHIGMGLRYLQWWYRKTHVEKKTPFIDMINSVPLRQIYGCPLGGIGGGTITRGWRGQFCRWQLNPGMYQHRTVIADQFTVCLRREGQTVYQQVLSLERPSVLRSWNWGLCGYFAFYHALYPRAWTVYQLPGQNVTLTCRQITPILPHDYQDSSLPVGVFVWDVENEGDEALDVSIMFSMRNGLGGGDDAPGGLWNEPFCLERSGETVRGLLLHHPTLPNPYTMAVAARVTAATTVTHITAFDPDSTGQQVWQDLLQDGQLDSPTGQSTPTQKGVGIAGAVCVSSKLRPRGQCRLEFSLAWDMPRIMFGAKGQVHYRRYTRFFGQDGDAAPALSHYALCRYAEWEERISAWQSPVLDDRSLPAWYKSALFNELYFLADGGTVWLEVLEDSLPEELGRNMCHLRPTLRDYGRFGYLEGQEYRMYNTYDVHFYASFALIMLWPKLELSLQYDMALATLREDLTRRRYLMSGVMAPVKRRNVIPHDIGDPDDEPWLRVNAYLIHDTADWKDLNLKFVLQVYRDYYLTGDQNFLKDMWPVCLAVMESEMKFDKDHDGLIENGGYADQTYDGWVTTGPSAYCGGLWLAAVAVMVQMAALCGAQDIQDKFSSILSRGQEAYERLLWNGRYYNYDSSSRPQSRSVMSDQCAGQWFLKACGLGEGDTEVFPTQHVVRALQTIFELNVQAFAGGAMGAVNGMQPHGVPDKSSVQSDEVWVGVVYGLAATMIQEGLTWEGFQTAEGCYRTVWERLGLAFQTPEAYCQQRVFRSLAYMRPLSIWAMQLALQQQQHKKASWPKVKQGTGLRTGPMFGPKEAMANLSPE
Description: Competitive ABPP (cABPP) with ABP 10 in HEK293T cell lysates, GBA2. The procedure:
(§1) In the first instance, the inhibitory potency of 1 and 2 for GBA, GBA2, and GBA3 was assessed by competitive activity‐based protein profiling (cABPP). For this, we first generated HEK293T cells that contain endogenous GBA and overexpress human GBA2 and GBA3.
(§2) Figure 3 Selectivity of compounds visualized by competitive ABPP labeling of β‐D‐glucosidase. Lysates of HEK293T cells expressing human GBA, GBA2 and GBA3 were incubated with compounds 1–5 at indicated concentrations for 30 min, following by cABPP with ABP 10.
(§3) ABP labeling procedure: Glycosidases were labeled with excess fluorescent ABPs at optimum conditions. ABP labeling was performed at 37 °C for 30 min for all materials (if not otherwise stated), in a total sample volume of 20–40 μL and 0.5–1 % DMSO concentration. GBA was labeled with 200 nM ABP 9 (pH 5.2, 0.1 % (v/v) Triton‐100, 0.2 % (w/v) sodium taurocholate), or labeled together with GBA2 using 200 nM β‐D‐glucose‐configured aziridine ABP 10 at pH 5.8, or labeling together with GBA2 and GBA3 using 200 nM β‐D‐glucose‐configured aziridine ABP 10 at pH 6.0. After ABP incubation, proteins were denatured by boiling the samples with 5× Laemmli buffer (50 % (v/v) 1 M Tris‐HCl, pH 6.8, 50 % (v/v) 100 % glycerol, 10 % (w/v) DTT, 10 % (w/v) SDS, 0.01 % (w/v) bromophenol blue) for 5 min at 98 °C, and separated by electrophoresis on 10 % (w/v) SDS‐PAGE gels running continuously at 90 V. Wet slab‐gels were scanned on fluorescence using the Typhoon FLA 9500 (GE Healthcare) at λEX 473 nm and λEM≥510 nm for green fluorescent ABP 8; and at λEX 635 nm and λEM≥665 nm for ABP 6, 9 and 10. ABP‐emitted fluorescence was quantified using ImageQuant software (GE Healthcare, Chicago, IL, USA) and curve‐fitted using Prism 8.0 (GraphPad Software). After fluorescence scanning, SDS‐PAGE gels were stained for total protein with Coomassie G250 and scanned on a ChemiDoc MP imager (Bio‐Rad, Hercules, CA, USA).[25]

Assay [2] has as its target T2, GBA (Homo sapiens, UniProt P04062).
T2 construct: HEK293T cells that contain endogenous GBA; endogenous in cells; host or cells: HEK293T (ATCC CRL-3216) overexpressing GBA2 and GBA3
T2 sequence (P04062 40-536): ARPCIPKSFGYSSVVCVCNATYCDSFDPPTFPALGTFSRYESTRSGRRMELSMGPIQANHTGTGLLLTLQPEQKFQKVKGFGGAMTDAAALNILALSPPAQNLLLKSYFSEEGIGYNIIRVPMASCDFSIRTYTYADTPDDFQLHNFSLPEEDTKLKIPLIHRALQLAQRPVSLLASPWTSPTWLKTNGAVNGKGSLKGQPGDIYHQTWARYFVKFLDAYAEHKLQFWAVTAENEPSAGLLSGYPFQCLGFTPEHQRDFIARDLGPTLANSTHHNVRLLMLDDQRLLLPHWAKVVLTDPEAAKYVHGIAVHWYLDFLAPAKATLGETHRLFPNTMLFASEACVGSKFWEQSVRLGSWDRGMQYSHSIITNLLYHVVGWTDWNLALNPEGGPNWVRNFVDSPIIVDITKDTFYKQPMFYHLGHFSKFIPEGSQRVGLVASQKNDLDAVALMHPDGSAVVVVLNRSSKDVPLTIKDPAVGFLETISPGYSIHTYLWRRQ
Description: Competitive ABPP (cABPP) with ABP 10 in HEK293T cell lysates, GBA. The method, then:
as §1, §2, §3

The target of assay [3] is T3, GBA3 (Homo sapiens, UniProt Q9H227).
T3 construct: expressed in transfected cells; host or cells: HEK293T (GBA/GBA2 KO background for the fluorogenic assay; endogenous-GBA background with GBA2 and GBA3 overexpressed for ABPP and intact-cell assays)
T3 sequence (Q9H227 1-469): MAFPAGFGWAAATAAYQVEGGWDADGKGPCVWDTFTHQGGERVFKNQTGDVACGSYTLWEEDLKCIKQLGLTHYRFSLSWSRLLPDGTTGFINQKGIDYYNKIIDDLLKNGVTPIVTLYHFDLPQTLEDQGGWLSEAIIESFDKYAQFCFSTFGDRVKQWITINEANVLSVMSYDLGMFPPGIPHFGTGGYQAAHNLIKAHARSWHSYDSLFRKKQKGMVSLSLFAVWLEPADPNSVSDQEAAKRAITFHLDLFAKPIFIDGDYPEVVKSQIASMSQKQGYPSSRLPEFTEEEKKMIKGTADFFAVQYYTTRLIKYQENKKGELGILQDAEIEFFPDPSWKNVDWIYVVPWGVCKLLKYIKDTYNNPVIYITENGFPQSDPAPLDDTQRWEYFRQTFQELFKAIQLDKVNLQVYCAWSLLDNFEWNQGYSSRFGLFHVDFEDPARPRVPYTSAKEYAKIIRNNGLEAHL
The assay can be described thus: Competitive ABPP (cABPP) with ABP 10 in HEK293T cell lysates, GBA3. The method, then:
as §1, §2, §3

The record followed here is paper PMC8596838, “Xylose‐Configured Cyclophellitols as Selective Inhibitors for Glucocerebrosidase” (Chembiochem, 2021).

Molecules are shown by their SMILES.

`OC[C@@H]1[C@@H](O)[C@H](O)[C@@H](O)[C@@H]2N[C@H]12` [compound 4, cyclophellitol aziridine, reference compound]: in assay [1], the “concentration competing ABP 10 labeling of GBA2” value is 0.1 to 1 µM. Also, the “concentration competing ABP 10 labeling of GBA” value in assay [2] lay within 0.1 to 1 µM. Further, the “competition of ABP 10 labeling of GBA3” value in assay [3] is reported as “with less potency”.
On to `O[C@@H]1[C@@H](O)[C@H](O)C[C@H]2N[C@@H]12` [compound 2, β‐D‐xylo‐Cyclophellitol aziridine], for which the “concentration competing ABP 10 labeling of GBA2” value in assay [1] amounted to 100 µM. The “concentration competing ABP 10 labeling of GBA” value in assay [2] lay in the range of 1 to 10 µM.
Regarding `[N-]=[N+]=NCCCCCCCCN1[C@H]2[C@H](O)[C@@H](O)[C@H](O)C[C@H]21` (stereo partly shown) [compound 5], the “competition of ABP 10 labeling of GBA” value in assay [2] is “greatly enhances inhibitory potency”. For the same compound, the “competition of ABP 10 labeling of GBA3” value in assay [3] is “greatly enhances inhibitory potency”.
Consider `O[C@@H]1[C@@H](O)[C@H](O)C[C@H]2O[C@@H]12` [compound 1, xylo‐cyclophellitol], for which the “competition of ABP 10 labeling of GBA2” value in assay [1] is given as “but not that of GBA2 or GBA3”. In addition, the “concentration competing ABP 10 labeling of GBA” value in assay [2] lay in the range of 10 to 100 µM. Further, the “competition of ABP 10 labeling of GBA3” value in assay [3] is “but not that of GBA2 or GBA3”.
As for `OC[C@@H]1[C@@H](O)[C@H](O)[C@@H](O)[C@@H]2O[C@H]12` [compound 3, cyclophellitol], in assay [1], the “concentration competing ABP 10 labeling of GBA2” value lay within 0.1 to 1 µM. In assay [2], the “concentration competing ABP 10 labeling of GBA” value lay within 0.1 to 1 µM. In assay [3], the “competition of ABP 10 labeling of GBA3” value was “with less potency”.
